Patent US8822146B2, “Derivatization of biomolecules by covalent coupling of non-cofactor compounds using methyltransferases” (Vilnius University, priority 2009, dated 2014)

Experiments:
M.Hpall = M.Hpall (Haemophilus parainfluenzae, UniProt P15446); conditions: 13 mM formaldehyde, 1000 nM M.Hpall, 100 nM pUC-618, 1 hour, room temperature
M.Sssl = M.Sssl (Spiroplasma monobiae, UniProt P15840); conditions: 13 mM formaldehyde, 500 nM M.Sssl, 100 nM pUC-618, 1 hour, room temperature
M.Hhal = M.Hhal (Haemophilus parahaemolyticus, UniProt P05102); test: DNA protection assay: pUC-618 fragment modified with aldehyde in the presence of M.Hhal, then R.Hin6I cleavage; assay type: biochemical; conditions: 800 mM acetaldehyde, 50 nM M.Hhal, 100 nM pUC-618, 1 hour, room temperature
Protocol: A 618 bp fragment of plasmid […] (pUC-618), which contains a single target site for M.Hhal, was used as a DNA substrate. pUC-618 was prepared by PCR amplification of the pUC19 template (Fermentas Life Sciences) using Dir (5′-[…]) (SEQ ID No:11) and Rev (5′-[…]) (SEQ ID No:12) primers and Taq DNA Polymerase (Fermentas Life Sciences). The PCR fragment was purified by Sephacryl S-400 (GE Healthcare) following the precipitation by ethanol. pUC-618 contains a single target site for M.Hhal.

M.Hhal, sequence (P05102 whole entry, the tested form may be a part): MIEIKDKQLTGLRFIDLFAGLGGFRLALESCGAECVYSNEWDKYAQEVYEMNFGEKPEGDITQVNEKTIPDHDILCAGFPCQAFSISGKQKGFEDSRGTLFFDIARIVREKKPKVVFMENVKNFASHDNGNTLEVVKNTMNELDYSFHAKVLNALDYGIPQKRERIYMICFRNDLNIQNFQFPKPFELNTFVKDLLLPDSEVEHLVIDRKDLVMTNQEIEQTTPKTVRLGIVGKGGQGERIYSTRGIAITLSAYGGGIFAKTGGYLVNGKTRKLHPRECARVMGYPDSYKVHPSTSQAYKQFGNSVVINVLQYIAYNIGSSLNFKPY
M.Sssl, sequence (P15840 whole entry, the tested form may be a part): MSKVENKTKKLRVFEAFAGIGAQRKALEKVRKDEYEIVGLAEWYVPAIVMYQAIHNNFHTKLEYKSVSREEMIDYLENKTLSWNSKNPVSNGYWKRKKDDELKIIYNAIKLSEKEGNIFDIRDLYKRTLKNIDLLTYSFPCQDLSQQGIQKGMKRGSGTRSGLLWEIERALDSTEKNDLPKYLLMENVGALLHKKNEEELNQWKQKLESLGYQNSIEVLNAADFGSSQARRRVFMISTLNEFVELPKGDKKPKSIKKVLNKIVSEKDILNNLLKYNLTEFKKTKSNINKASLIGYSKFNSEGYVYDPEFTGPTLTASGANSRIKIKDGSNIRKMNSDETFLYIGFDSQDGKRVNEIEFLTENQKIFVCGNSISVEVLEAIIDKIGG
M.Hpall, sequence (P15446 whole entry): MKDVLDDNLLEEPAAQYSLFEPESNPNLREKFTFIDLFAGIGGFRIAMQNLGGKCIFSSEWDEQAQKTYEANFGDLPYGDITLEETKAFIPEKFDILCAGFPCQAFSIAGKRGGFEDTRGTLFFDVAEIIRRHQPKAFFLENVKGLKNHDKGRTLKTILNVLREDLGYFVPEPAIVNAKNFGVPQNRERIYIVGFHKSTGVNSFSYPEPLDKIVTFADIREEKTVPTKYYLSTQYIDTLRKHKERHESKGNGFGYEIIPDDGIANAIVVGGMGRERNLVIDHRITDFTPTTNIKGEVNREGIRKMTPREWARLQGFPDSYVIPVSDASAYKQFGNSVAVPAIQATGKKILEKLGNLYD

SMILES: C=O [formaldehyde]
- resistance of the CCGG sites to cleavage with R.Hpall (M.Hpall): 70%
- resistance of the GCGC site to cleavage with R.Hin6I (M.Sssl): 70%

SMILES: CC=O [acetaldehyde]
- resistance of the GCGC site to R.Hin6I cleavage (M.Hhal): nearly fully
